Reference: ChEMBL document CHEMBL1132038, “L-770,644: a potent and selective human beta3 adrenergic receptor agonist with improved oral bioavailability” (Bioorg Med Chem Lett, 1999)

Assays:
[1] = target: T1, Beta-2 adrenergic receptor (Homo sapiens, UniProt P07550); experiment: Inhibitory activity against cloned human Beta-2 adrenergic receptor in the presence of [125I]iodocyanopindolol in CHO cells by receptor binding assay; format: cell-based
Target sequence in this assay (P07550 whole entry): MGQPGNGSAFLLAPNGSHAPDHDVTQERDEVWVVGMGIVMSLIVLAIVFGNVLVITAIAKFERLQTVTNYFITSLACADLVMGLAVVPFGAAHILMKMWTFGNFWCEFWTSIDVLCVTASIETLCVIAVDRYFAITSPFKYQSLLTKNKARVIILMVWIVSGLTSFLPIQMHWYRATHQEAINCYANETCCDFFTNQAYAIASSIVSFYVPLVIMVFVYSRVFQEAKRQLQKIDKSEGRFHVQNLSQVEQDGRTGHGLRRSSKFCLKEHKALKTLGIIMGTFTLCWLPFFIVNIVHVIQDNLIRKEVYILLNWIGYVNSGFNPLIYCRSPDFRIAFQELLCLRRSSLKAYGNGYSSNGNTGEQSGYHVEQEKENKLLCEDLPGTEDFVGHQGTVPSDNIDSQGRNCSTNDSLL

[2] = target: T2, Beta-1 adrenergic receptor (Homo sapiens, UniProt P08588); experiment: Adenylyl cyclase activation expressed as percent of maximal stimulation with isoproterenol against the cloned human Beta-1 adrenergic receptor 10 uM; format: functional
Target sequence in this assay (P08588 whole entry, looked up): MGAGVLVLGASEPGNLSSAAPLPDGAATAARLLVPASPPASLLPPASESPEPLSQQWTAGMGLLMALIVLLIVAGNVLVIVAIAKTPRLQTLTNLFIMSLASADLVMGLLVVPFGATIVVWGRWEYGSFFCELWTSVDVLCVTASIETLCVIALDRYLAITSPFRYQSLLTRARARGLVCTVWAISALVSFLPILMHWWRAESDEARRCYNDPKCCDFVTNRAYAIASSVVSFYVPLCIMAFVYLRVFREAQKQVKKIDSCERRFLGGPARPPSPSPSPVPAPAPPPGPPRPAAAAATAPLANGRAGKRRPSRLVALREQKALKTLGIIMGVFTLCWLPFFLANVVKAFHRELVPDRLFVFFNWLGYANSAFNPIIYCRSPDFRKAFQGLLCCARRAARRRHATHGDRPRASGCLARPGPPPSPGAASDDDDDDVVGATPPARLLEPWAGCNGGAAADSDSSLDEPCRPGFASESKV

[3] = target: T2, Beta-1 adrenergic receptor; experiment: Inhibitory activity against cloned human Beta-1 adrenergic receptor in the presence of [125I]iodocyanopindolol in CHO cells by receptor binding assay; format: cell-based
Target sequence in this assay (P08588 whole entry): as the sequence (P08588 whole entry, looked up) above

[4] = target: T3, Beta-3 adrenergic receptor (Homo sapiens, UniProt P13945); experiment: Adenylyl cyclase activation expressed as percent of maximal stimulation with isoproterenol at the cloned human Beta-3 adrenergic receptor at 10 uM; format: functional
Target sequence in this assay (P13945 whole entry, looked up): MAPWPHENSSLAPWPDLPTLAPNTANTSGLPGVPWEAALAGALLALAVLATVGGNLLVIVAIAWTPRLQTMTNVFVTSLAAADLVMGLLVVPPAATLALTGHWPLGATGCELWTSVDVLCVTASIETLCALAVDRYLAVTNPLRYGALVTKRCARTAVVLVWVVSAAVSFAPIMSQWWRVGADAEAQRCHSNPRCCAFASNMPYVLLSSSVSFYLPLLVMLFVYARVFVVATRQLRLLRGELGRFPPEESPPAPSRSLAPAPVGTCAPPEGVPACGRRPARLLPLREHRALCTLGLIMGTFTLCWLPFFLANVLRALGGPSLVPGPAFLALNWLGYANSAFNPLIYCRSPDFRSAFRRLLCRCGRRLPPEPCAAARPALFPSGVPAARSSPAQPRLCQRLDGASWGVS

[5] = target: T3, Beta-3 adrenergic receptor; experiment: Agonistic activity against the cloned human Beta-3 adrenergic receptor was measured by its by its ability to stimulate adenylyl cyclase; format: functional
Target sequence in this assay (P13945 whole entry): as the sequence (P13945 whole entry, looked up) above

[6] = target: T1, Beta-2 adrenergic receptor; experiment: Adenylyl cyclase activation expressed as percent of maximal stimulation with isoproterenol against the cloned human Beta-2 adrenergic receptor at 10 uM; format: functional
Target sequence in this assay (P07550 whole entry, looked up): as the sequence (P07550 whole entry) above

[7] = target: T2, Beta-1 adrenergic receptor; experiment: Agonistic activity against the cloned human Beta-1 adrenergic receptor was measured by its by its ability to stimulate adenylyl cyclase; format: functional
Target sequence in this assay (P08588 whole entry): as the sequence (P08588 whole entry, looked up) above

[8] = target: T1, Beta-2 adrenergic receptor; experiment: Adenylyl cyclase activation expressed as percent of maximal stimulation with isoproterenol at the cloned human Beta-2 adrenergic receptor at 10 uM; format: functional
Target sequence in this assay (P07550 whole entry, looked up): as the sequence (P07550 whole entry) above

[9] = target: T1, Beta-2 adrenergic receptor; experiment: Agonistic activity against the cloned human Beta-2 adrenergic receptor was measured by its by its ability to stimulate adenylyl cyclase; format: functional
Target sequence in this assay (P07550 whole entry): as above

[10] = target: T2, Beta-1 adrenergic receptor; experiment: Inhibitory activity against cloned human Beta-1 adrenergic receptor in the presence of [125I]iodocyanopindolol expressed in CHO cells by receptor binding assay; format: cell-based
Target sequence in this assay (P08588 whole entry): as the sequence (P08588 whole entry, looked up) above

[11] = tested on: Monkey; experiment: Compound was tested for agonistic activity for glycerolemia in rhesus monkey; format: functional; conditions: Cercopithecidae, in Macaca mulatta
[12] = Oral bioavailability in dog; format: ADME, organism-based, Canis lupus familiaris; conditions: in vivo
[13] = target: T3, Beta-3 adrenergic receptor; experiment: Inhibitory activity against cloned human Beta-3 adrenergic receptor in the presence of [125I]iodocyanopindolol expressed in CHO cells by receptor binding assay; format: cell-based
Target sequence in this assay (P13945 whole entry): as the sequence (P13945 whole entry, looked up) above

[14] = Oral bioavailability in rat; format: ADME, organism-based; conditions: in vivo
[15] = target: T2, Beta-1 adrenergic receptor; experiment: Adenylyl cyclase activation expressed as percent of maximal stimulation with isoproterenol at the cloned human Beta-1 adrenergic receptor at 10 uM; format: functional
Target sequence in this assay (P08588 whole entry, looked up): as the sequence (P08588 whole entry, looked up) above

[16] = Oral bioavailability in dog (p.o. dosing of 0.05 M citric acid/0.05 M hydrochloric acid solution); format: ADME, organism-based, Canis lupus familiaris; conditions: in vivo
[17] = Compound was evaluated for the half-life (t 1/2) in hours; format: ADME, organism-based, Canis lupus familiaris; conditions: dog, in vivo

IC50 [1]	Activation [4]	EC50 [5]	bioavailability [16]	half-life [17]	Compound	IC50 [3]	EC50 [7]	other results
3300 nM	67%	30 nM	–	–	CCCCCCn1nnn(-c2ccc(S(=O)(=O)Nc3ccc(CCNC[C@H](O)c4cccnc4)cc3)cc2)c1=O	5000 nM	–	Activation [2]: 19%; Activation [6]: 9%
1600 nM	75%	13 nM	–	–	O=c1n(CCCC2CCCC2)nnn1-c1ccc(S(=O)(=O)Nc2ccc(CCNC[C@H](O)c3cccnc3)cc2)cc1	–	1900 nM	Activation [8]: 26%; EC50 [9]: 1800 nM; IC50 [10]: 3400 nM; ED50 [11]: 0.21 mg/kg; bioavailability [12]: 27%; IC50 [13]: 92 nM; bioavailability [14]: 27%; Activation [15]: 33%
–	–	–	12%	3.6 h	CCCCCCn1ccn(-c2ccc(S(=O)(=O)Nc3ccc(CCNC[C@H](O)c4cccnc4)cc3)cc2)c1=O [L-764646]	–	–	–
–	–	–	17%	3.5 h	O=C1N(CCCC2CCCC2)CCN1c1ccc(S(=O)(=O)Nc2ccc(CCNC[C@H](O)c3cccnc3)cc2)cc1 [L-766892]	–	–	–

Compound	IC50 [1]	Activation [4]	EC50 [5]	bioavailability [16]	half-life [17]	IC50 [3]	EC50 [7]	other results
CCCCCCCCn1nnn(-c2ccc(S(=O)(=O)Nc3ccc(CCNC[C@H](O)c4cccnc4)cc3)cc2)c1=O	570 nM	57%	6.3 nM	–	–	1400 nM	370 nM	–
